Source: patent US8415469B2, “Compounds and methods for kinase modulation, and indications therefor” (Plexxikon Inc., priority 2005, dated 2013)

Tests used:
Format in all cases: biochemical
EphB2 = target: T1, EphB2 (Homo sapiens, UniProt P29323); assay: Z'-Lyte FRET kinase assay (Invitrogen), EphB2; settings: read-out: IC50, activity toward kinase EphB2
T1 construct: purchased Invitrogen (assay run by Invitrogen)
T1 sequence (P29323 19-1055): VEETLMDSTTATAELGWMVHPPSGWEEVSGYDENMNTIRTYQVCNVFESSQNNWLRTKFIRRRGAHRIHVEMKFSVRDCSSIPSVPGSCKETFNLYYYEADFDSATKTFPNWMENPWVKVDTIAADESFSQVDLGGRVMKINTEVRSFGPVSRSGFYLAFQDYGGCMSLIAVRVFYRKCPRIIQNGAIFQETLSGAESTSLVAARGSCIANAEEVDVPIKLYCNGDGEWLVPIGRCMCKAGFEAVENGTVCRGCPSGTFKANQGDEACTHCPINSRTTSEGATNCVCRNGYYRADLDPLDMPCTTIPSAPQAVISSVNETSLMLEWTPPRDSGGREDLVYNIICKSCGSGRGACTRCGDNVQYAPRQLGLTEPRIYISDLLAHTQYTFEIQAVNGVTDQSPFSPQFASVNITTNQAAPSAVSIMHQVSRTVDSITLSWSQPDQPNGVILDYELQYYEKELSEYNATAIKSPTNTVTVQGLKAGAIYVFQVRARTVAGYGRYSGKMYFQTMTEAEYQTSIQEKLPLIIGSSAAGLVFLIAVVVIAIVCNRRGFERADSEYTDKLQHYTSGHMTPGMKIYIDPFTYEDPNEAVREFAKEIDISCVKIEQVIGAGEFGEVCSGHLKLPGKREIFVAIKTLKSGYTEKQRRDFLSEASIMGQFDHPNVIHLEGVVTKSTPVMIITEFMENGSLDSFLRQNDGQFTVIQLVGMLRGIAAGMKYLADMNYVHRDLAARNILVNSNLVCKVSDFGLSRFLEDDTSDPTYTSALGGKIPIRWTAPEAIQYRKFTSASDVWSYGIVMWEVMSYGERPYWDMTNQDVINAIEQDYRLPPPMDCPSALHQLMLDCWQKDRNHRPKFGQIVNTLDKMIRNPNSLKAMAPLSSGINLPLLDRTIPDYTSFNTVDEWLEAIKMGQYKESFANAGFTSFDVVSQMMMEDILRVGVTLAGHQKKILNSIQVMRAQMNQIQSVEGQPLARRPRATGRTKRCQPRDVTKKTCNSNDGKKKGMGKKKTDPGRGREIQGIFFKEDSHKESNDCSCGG
Text: The effect of potential modulators of kinase activity can be measured in a variety of different assays known in the art. For example, direct radiometric, indirect FRET or AlphaScreen assays may be used to assess the level of phosphorylation of a substrate in the presence of test compounds in order to determine the inhibitory affect of the compound on the kinase. Invitrogen (Carlsbad, Calif.) uses a FRET based assay for Btk, EGFR, EphB2, Flt3, lrak4, Kdr, MAP2K1, MAPKAPK2, PDGFRB, PKC theta, Stk6 and Yes. For these assays, compounds of the invention were screened by Invitrogen using Z′-Lyte™ kinase assay.
Briefly, the Invitrogen kinase assay involves use of a specific peptide substrate optimized for each kinase, containing a fluorophore at each end that make up the FRET pair. The peptide sensitivity to proteolytic cleavage depends on phosphorylation of the peptide. Non-phosphorylated peptide is cleaved by a protease while peptide phosphorylated by the kinase is not cleaved. Cleavage of the peptide disrupts the FRET between the donor (coumarin) and acceptor (fluorescein) fluorophores, resulting in an increase in the ratio of donor emission to acceptor emission. The emission ratio of coumarin to fluorescein is used to assess the reaction progress. The extent of phosphorylation is determined from the emission ratio, which is low when the kinase is active (phosphorylated peptide is not cleaved, FRET pair connected) or higher for inhibited kinase (non-phosphorylated peptide is cleaved, FRET pair separated). Thus, the assay involves a kinase reaction in the presence of varying concentrations of a given compound, a development reaction with site specific protease, and detection of the fluorescent emission ratio of coumarin and fluorscein. […] Reaction conditions for each kinase are determined to provide optimal reaction times, incubation temperature, kinase and ATP concentrations. Test samples are made up in 1× kinase buffer (50 mM HEPES pH 7.5, 50 mM MgCl2, 5 mM EGTA, 0.05% BRIJ-35) and compound at desired concentration prepared in DMSO such that the final DMSO is 1%. […] Typically, assay plates are prepared to 10 μl final volume per sample, adding 2.5 μl of compound at 4× the desired concentration in 4% DMSO (serial dilution of compound provides concentration curve), 5 μl of the desired kinase mixed with Z′-LYTE™ peptide substrate (2× in 2× kinase buffer, final peptide at 2 μM), and 2.5 μl of 4×ATP solution. All kinase except for MAP2K1 were at 10 μM ATP in the kinase reaction, while MAP2K1 was at 100 μM. Samples are mixed and the kinase reaction is incubated 1 hour at room temperature, after which 5 μl of development solution is added and mixed. After incubation for another 1 hour at room temperature, 5 μl of stop reagent is added to each sample and mixed. The fluorescence signals are measured to determine the emission ratio.

B-Raf V600E = target: T2, B-Raf V600E (Homo sapiens, UniProt P15056, V600E); assay: AlphaScreen kinase assay, B-Raf V600E; settings: read-out: IC50, activity toward kinase B-Raf V600E
T2 construct: P4254. pFastBacBD-CDC37 BRAF D437-K722-X, V600E; His6 with pFastBac HT leader (TEV site) (N); made in house; host or cells: Sf9 (baculovirus; chaperone CDC37 co-expressed)
T2 sequence (P15056 with tags, fused parts or gaps V600E): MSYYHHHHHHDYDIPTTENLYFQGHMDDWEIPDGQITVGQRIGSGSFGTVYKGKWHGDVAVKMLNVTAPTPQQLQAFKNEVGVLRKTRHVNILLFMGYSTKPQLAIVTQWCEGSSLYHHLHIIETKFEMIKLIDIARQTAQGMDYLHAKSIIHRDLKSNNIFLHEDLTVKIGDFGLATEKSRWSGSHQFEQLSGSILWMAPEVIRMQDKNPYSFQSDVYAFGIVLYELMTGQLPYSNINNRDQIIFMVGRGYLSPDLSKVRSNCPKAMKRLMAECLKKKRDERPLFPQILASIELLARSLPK

Yes = target: T3, Yes (Homo sapiens, UniProt P07947); assay: Z'-Lyte FRET kinase assay (Invitrogen), Yes; settings: read-out: IC50, activity toward kinase Yes
T3 construct: purchased Invitrogen (Carlsbad, Calif.), screening service
T3 sequence (P07947 whole entry): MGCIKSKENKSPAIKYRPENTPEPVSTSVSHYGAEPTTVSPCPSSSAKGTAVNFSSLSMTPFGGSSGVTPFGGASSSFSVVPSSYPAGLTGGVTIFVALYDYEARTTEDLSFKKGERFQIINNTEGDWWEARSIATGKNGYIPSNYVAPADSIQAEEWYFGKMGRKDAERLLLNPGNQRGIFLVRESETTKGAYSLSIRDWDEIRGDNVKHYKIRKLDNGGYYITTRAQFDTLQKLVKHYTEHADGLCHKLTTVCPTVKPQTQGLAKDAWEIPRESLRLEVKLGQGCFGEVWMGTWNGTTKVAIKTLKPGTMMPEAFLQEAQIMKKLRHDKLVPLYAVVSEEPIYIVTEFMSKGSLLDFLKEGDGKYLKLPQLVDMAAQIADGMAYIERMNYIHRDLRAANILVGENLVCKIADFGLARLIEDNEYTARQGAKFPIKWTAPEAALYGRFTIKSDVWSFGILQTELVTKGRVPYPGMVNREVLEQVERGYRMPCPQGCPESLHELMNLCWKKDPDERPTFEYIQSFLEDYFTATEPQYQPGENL
Procedure, shortened: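 10 μM ATP, 2 μM peptide, 1% DMSO final; HEPES pH 7.5 buffer with MgCl2/EGTA/BRIJ-35. Kinase rxn 1 h RT, protease development 1 h RT, stop, read donor/acceptor ratio. Compound titrated.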

Kdr = target: T4, Kdr (Homo sapiens, UniProt P35968); assay: Z'-Lyte FRET kinase assay (Invitrogen), Kdr; settings: read-out: IC50, activity toward kinase Kdr
T4 construct: purchased Invitrogen (assay run by Invitrogen)
T4 sequence (P35968 20-1356): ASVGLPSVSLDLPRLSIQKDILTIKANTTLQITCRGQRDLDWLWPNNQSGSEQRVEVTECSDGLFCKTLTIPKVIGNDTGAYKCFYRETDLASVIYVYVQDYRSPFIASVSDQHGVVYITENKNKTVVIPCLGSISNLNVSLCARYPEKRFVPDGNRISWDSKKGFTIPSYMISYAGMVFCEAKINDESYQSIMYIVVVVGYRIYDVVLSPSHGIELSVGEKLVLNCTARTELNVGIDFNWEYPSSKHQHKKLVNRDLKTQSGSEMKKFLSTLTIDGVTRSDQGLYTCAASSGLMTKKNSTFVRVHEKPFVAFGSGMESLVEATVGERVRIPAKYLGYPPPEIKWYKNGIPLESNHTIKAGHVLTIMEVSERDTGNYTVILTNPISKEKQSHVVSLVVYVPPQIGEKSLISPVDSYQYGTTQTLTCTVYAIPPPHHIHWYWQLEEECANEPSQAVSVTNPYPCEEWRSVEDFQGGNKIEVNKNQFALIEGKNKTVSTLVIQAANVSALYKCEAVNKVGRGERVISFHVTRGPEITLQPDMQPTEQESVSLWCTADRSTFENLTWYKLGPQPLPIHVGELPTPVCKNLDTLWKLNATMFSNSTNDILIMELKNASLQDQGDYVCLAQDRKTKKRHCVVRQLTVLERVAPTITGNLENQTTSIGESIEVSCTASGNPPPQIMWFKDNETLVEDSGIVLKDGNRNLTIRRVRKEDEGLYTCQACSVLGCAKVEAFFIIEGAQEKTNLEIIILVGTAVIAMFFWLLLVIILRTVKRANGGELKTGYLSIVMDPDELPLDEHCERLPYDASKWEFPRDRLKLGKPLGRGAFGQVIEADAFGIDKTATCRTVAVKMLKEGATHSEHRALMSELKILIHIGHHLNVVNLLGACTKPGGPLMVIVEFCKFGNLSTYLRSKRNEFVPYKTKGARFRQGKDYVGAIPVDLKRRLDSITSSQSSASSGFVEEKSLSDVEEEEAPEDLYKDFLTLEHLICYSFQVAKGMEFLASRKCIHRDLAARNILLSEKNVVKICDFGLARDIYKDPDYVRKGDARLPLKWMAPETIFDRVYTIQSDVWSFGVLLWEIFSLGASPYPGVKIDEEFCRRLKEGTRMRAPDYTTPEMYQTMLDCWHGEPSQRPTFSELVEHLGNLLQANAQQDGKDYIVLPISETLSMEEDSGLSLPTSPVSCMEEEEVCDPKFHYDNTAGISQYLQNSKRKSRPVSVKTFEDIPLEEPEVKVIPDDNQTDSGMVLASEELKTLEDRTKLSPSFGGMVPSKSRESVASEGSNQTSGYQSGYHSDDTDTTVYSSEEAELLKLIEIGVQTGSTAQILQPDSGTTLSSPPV

B-Raf = target: T5, B-Raf (Homo sapiens, UniProt P15056); assay: AlphaScreen kinase assay, B-Raf; settings: read-out: IC50, activity toward kinase B-Raf
T5 construct: purchased Upstate Biotechnology
T5 sequence (P15056 whole entry): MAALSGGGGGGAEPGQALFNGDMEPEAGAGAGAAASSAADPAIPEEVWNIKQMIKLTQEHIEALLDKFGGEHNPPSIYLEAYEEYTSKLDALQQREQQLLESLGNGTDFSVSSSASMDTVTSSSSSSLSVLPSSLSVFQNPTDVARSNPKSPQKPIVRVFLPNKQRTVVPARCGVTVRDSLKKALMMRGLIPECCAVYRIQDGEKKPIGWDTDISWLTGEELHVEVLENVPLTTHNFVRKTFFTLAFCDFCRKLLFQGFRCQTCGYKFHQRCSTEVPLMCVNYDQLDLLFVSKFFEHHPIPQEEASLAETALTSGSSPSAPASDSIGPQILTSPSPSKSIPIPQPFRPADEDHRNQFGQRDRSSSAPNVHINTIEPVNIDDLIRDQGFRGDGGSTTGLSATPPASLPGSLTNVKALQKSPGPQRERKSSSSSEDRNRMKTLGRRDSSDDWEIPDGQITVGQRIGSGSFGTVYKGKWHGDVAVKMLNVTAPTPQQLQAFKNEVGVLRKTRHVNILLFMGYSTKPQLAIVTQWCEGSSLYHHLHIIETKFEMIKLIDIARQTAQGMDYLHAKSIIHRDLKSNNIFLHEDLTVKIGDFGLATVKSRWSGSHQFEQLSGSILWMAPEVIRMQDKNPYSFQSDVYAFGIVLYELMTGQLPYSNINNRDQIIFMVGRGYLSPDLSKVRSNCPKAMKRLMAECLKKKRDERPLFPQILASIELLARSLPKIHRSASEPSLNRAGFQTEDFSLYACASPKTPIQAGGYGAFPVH

Ret = target: T6, Ret (Homo sapiens, UniProt P07949); assay: AlphaScreen kinase assay, Ret; settings: read-out: IC50, activity toward kinase Ret
T6 construct: P1378.pET-SF BI-PTP RET H661-R1012 HIS; made in house
T6 sequence (P07949 with tags, fused parts or gaps): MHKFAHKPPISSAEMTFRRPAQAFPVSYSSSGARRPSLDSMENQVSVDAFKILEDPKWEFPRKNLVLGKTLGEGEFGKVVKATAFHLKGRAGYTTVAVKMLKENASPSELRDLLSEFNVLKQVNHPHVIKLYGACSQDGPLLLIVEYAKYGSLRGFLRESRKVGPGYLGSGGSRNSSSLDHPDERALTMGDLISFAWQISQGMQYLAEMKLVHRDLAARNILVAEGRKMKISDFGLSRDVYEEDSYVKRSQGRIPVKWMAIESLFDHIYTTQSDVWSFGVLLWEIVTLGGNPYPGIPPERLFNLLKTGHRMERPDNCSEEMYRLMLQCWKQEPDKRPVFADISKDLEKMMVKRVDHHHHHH
Text: (§2) AlphaScreen assay was used to screen additional kinases. The assay is similarly dependent on the phosphorylation of a peptide substrate. In this assay, an antibody that recognizes phosphorylated substrate is bound to an acceptor bead. The peptide substrate is attached to biotin, which binds to a donor head that contains streptavidin. Thus phosphorylated substrate is bound by antibody and streptavidin, bringing the donor and acceptor heads into close proximity when kinase is not inhibited. The donor produces singlet oxygen which results in emission from the acceptor when they are in close proximity. Conversely, when kinase is inhibited, the donor and acceptor beads are not associated and the emission from the acceptor is reduced.
(§3) AlphaScreen assays were done using compounds dissolved in DMSO to a concentration of 20 mM. The compounds were diluted accordingly to the desired final concentrations in each sample well, using 1:3 serial dilution for a total of 8 concentration points. Plates were prepared such that each kinase reaction is 20 μl in 1× kinase buffer, 5% DMSO and 10 μM ATP. After incubation of the kinase reaction for 1 hour at room temperature, 5 μl of donor beads in stop buffer (50 mM EDTA in 1× kinase buffer) was added, the sample was mixed and incubated for 20 minutes at room temperature before adding 5 μl of acceptor beads in stop buffer. The samples were incubated for 60 minutes at room temperature and the signal per well was read on AlphaQuest reader.

Jnk3 = target: T7, Jnk3 (Homo sapiens, UniProt P53779); assay: AlphaScreen kinase assay, Jnk3; settings: read-out: IC50, activity toward kinase Jnk3
T7 construct: purchased Upstate Biotechnology
T7 sequence (P53779 whole entry): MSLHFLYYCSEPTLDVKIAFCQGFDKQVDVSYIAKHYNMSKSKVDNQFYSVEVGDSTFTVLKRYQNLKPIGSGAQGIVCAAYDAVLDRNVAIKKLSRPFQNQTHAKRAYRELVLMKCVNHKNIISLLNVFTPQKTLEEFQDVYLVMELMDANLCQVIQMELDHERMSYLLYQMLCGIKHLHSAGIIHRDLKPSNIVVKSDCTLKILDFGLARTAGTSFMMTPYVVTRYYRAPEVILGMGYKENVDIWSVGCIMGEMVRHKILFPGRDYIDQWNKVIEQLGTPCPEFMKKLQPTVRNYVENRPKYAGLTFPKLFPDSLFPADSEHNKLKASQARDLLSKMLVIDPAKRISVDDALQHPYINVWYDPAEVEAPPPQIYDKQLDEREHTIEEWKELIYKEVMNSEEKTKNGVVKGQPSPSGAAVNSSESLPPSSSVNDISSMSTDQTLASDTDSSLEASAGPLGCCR

Pyk2 = target: T8, Pyk2 (Homo sapiens, UniProt Q14289); assay: AlphaScreen kinase assay, Pyk2; settings: read-out: IC50, activity toward kinase Pyk2
T8 construct: purchased Upstate Biotechnology
T8 sequence (Q14289 whole entry): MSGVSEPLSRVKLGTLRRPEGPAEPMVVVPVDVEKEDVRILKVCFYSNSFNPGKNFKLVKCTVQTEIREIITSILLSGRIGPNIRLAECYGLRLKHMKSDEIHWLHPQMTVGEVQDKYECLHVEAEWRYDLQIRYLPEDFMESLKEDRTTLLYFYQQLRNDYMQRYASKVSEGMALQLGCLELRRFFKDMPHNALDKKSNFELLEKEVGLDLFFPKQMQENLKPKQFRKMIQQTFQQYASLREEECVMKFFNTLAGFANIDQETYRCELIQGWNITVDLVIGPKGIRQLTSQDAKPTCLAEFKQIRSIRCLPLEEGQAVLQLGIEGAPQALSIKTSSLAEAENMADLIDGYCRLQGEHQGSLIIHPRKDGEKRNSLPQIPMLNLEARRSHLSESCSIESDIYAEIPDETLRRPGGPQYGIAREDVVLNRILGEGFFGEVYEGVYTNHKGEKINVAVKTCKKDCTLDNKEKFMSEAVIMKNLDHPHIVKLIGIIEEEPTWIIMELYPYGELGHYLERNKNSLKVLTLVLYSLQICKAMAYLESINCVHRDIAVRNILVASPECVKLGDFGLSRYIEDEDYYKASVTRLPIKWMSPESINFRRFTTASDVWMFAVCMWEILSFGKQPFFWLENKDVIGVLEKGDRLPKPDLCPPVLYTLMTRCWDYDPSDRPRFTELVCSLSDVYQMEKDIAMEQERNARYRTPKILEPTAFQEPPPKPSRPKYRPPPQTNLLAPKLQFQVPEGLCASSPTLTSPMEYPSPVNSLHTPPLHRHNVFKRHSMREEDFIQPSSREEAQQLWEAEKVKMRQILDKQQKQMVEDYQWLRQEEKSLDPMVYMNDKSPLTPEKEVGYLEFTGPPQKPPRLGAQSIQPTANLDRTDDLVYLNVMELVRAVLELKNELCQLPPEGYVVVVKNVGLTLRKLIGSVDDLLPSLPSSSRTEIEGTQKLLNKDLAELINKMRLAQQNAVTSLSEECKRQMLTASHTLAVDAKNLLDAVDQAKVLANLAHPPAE
Text: as §2, §3

Src = target: T9, Src (Homo sapiens, UniProt P12931); assay: AlphaScreen kinase assay, Src; settings: read-out: IC50, activity toward kinase Src
T9 construct: P1144. pET-N6 BI-PTP SRC V86-L536-X; made in house

Met = target: T10, Met (Homo sapiens, UniProt P08581); assay: AlphaScreen kinase assay, Met; settings: read-out: IC50, activity toward kinase Met
T10 construct: P1818.pETN6 BI-PTP MET G1056-G1364-X WT; His6 (N); made in house; host or cells: E. coli (PTP1B co-expressed)
T10 sequence (P08581 with tags, fused parts or gaps): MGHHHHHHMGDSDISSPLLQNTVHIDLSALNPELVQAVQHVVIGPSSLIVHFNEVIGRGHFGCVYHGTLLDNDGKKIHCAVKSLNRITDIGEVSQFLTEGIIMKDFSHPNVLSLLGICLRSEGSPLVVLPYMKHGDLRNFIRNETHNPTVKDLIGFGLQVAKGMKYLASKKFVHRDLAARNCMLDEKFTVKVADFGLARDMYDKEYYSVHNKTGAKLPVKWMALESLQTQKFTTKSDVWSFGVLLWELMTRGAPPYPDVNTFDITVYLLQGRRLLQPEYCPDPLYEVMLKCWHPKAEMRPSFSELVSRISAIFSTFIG
Procedure, shortened: (§1)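 Emission from acceptor beads reports phosphorylated biotin-peptide bridging antibody-coated acceptor and streptavidin donor beads; loss of signal reflects kinase inhibition. Eight-point, threefold dilution series prepared from 20 mM DMSO stocks.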

Abl = target: T11, Abl (Homo sapiens, UniProt P00519); assay: AlphaScreen kinase assay, Abl; settings: read-out: activity toward kinase Abl, IC50
T11 construct: P1121. pET-SPEC BI-PTP Abl G227-V515-X; His6 (N); made in house; host or cells: E. coli (PTP1B co-expressed)
T11 sequence (P00519 with tags, fused parts or gaps): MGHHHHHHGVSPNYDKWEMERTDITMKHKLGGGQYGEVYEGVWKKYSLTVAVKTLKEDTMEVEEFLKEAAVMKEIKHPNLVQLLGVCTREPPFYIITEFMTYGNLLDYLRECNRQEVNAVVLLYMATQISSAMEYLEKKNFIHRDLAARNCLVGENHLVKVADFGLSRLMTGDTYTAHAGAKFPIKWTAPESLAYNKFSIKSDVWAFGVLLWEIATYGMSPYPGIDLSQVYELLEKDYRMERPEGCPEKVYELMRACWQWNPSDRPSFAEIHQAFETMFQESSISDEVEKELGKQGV
Procedure, shortened: as §1

Zap70 = target: T12, Zap70 (Homo sapiens, UniProt P43403); assay: AlphaScreen kinase assay, Zap70; settings: read-out: IC50, activity toward kinase Zap70
T12 construct: P1868.pFastBac1 ZAP70 D327-G606 HIS, WT; His7 (HHHHHHH) (C); made in house
T12 sequence (P43403 with tags, fused parts or gaps): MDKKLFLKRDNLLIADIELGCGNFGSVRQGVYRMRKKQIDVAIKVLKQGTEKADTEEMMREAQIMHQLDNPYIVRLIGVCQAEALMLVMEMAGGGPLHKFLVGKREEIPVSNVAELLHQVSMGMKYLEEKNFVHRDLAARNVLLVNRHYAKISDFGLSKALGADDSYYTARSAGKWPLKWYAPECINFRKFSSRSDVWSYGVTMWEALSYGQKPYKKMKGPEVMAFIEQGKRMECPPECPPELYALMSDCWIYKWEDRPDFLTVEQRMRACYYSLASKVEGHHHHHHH
Procedure, shortened: as §1

Flt1 = target: T13, Flt1 (Homo sapiens, UniProt P17948); assay: AlphaScreen kinase assay, Flt1; settings: read-out: IC50, activity toward kinase Flt1
T13 construct: P1826.pETN6 BI-PTP FLT1 M799-D1165-X WT; His6 (N); made in house; host or cells: E. coli (PTP1B co-expressed)
T13 sequence (P17948 with tags, fused parts or gaps): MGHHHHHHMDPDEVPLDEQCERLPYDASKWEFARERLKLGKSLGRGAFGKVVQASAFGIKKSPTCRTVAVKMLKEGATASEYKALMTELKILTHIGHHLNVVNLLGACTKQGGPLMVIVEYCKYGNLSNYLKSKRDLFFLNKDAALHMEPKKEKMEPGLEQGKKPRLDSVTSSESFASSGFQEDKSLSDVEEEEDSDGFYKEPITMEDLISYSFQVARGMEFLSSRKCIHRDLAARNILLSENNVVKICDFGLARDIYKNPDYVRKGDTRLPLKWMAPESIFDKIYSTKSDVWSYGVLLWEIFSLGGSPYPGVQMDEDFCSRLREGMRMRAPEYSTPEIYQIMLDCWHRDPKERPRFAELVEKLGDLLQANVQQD

FGFR1 = target: T14, FGFR1 (Homo sapiens, UniProt P11362, C488A/C584S); assay: AlphaScreen kinase assay, FGFR1; settings: read-out: IC50, activity toward kinase FGFR
T14 construct: P1351.pET N6 BI-PTP FGFR A458-E765-X C488A, C584S; made in house; host or cells: E. coli (PTP1B co-expressed)

Fak = target: T15, Fak (Homo sapiens, UniProt Q05397); assay: AlphaScreen kinase assay, Fak; settings: read-out: IC50, activity toward kinase Fak
T15 construct: P1358.pFastBacHtb FAK S411-Q686-X; His6 with pFastBacHTb leader (TEV site) (N); made in house; host or cells: Sf9 (baculovirus)
T15 sequence (Q05397 411-686): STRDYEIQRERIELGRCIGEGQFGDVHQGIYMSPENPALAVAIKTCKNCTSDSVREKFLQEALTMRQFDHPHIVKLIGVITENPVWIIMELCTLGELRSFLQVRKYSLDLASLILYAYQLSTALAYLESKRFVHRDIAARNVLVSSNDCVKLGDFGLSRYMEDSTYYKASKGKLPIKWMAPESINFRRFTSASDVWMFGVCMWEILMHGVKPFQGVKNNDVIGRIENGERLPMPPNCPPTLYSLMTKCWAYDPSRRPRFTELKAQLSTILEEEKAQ

Measured: IC50

O=C(c1ccccc1F)c1c[nH]c2nccc(-c3cccnc3)c12 [Compound P-0062]
≤ 10 µM: EphB2 | B-Raf V600E | Yes

COC(c1c(F)ccc(O)c1F)c1c[nH]c2ncc(Br)cc12 (stereo not shown) [Compound P-0126, 3-[(5-Bromo-1H-pyrrolo[2,3-b]pyridin-3-yl)-methoxy-methyl]-2,4-difluoro-phenol]
≤ 10 µM: EphB2 | Kdr | B-Raf V600E | B-Raf | Yes

CC(=O)Nc1cccc(-c2ccnc3[nH]cc(C(=O)c4cccc(Cl)c4Cl)c23)c1 [Compound P-0186]
≤ 10 µM: EphB2 | B-Raf V600E | Ret

O=S(=O)(NCc1c[nH]c2ncccc12)c1ccsc1 [Compound P-0320]
not listed: EphB2 | Yes | B-Raf | Fak
≤ 10 µM: all other assays above

CS(=O)(=O)CCNC(=O)c1ccc(S(=O)(=O)NCc2c[nH]c3ncccc23)cc1 [Compound P-0675]
≤ 10 µM: Jnk3 | Ret | Fak | Met | Abl | Zap70
